Legend:
[1] = molecular target: Beta-2 adrenergic receptor (Homo sapiens) (UniProt P07550); experiment: BETA2/HUM Eurofins SafetyScreen44 (BI); details: filed as antagonist, Compound concentration 10.0 uM
[2] = molecular target: Voltage-dependent L-type calcium channel subunit alpha-1C (dihydropyridine site) (Rattus norvegicus, UniProt P22002); experiment: CA+/DHPSI/R Eurofins SafetyScreen44 (BI); design: mode of action inhibitor; details: rat brain, probe [3H](+)PN200-110, compound concentration 10 uM, read-out: % Ctrl
[3] = molecular target: Delta-type opioid receptor (Homo sapiens) (UniProt P41143); experiment: DELTA2/H Eurofins SafetyScreen44 (BI); details: Compound concentration 10.0 uM
Sequence of Delta-type opioid receptor (Homo sapiens) (P41143 whole entry): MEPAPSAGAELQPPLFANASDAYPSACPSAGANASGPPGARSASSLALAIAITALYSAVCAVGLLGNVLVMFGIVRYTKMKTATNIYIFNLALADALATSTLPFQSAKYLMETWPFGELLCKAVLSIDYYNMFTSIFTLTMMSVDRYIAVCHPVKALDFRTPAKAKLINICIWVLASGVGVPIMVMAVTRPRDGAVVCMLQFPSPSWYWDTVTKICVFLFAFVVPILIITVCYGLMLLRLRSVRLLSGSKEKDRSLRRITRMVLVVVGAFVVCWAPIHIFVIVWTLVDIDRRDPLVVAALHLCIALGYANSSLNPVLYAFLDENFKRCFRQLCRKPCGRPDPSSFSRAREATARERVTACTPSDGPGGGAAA

[4] = molecular target: Histamine H1 receptor (Homo sapiens) (UniProt P35367); experiment: H1/PYRIL/HS Eurofins SafetyScreen44 (BI); details: Compound concentration 10.0 uM
Sequence of Histamine H1 receptor (Homo sapiens) (P35367 whole entry): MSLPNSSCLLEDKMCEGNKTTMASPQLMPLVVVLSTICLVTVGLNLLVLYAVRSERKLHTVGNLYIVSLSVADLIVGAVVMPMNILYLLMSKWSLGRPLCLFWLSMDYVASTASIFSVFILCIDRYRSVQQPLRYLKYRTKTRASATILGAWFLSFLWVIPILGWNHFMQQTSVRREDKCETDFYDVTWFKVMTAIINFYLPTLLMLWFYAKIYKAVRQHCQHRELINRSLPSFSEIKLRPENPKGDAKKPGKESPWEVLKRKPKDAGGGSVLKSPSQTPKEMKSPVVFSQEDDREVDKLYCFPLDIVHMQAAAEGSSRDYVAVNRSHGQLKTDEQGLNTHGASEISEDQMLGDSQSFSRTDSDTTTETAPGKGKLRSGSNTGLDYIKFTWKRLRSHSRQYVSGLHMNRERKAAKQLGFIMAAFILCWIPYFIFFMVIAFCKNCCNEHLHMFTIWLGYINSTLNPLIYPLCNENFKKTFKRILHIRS

[5] = molecular target: Potassium voltage-gated channel subfamily V member 1 (Rattus norvegicus) (UniProt P97557); experiment: K+/VOLT/RA Eurofins SafetyScreen44 (BI); details: Compound concentration 10.0 uM
Sequence of Potassium voltage-gated channel subfamily V member 1 (Rattus norvegicus) (P97557 whole entry): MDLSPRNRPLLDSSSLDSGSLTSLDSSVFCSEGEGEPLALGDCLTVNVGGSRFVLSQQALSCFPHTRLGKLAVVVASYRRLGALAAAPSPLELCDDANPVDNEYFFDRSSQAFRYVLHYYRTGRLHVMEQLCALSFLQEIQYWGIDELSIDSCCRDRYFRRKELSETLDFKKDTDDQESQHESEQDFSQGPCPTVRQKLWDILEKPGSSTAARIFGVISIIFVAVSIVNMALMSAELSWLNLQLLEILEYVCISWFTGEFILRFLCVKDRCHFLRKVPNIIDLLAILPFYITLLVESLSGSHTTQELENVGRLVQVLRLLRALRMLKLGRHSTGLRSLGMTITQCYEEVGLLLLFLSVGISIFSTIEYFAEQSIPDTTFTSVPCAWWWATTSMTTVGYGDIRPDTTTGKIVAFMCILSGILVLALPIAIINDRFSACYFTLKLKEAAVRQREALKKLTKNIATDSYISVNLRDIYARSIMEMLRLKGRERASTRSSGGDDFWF

[6] = molecular target: Tyrosine-protein kinase Lck (Homo sapiens) (UniProt P06239); experiment: LCK_CE Eurofins SafetyScreen44 (BI); details: Compound concentration 10.0 uM
[7] = molecular target: Muscarinic acetylcholine receptor M3 (Homo sapiens, UniProt P20309); experiment: M3/H Eurofins SafetyScreen44 (BI); details: Compound concentration 10.0 uM
Sequence of Muscarinic acetylcholine receptor M3 (P20309 whole entry, looked up): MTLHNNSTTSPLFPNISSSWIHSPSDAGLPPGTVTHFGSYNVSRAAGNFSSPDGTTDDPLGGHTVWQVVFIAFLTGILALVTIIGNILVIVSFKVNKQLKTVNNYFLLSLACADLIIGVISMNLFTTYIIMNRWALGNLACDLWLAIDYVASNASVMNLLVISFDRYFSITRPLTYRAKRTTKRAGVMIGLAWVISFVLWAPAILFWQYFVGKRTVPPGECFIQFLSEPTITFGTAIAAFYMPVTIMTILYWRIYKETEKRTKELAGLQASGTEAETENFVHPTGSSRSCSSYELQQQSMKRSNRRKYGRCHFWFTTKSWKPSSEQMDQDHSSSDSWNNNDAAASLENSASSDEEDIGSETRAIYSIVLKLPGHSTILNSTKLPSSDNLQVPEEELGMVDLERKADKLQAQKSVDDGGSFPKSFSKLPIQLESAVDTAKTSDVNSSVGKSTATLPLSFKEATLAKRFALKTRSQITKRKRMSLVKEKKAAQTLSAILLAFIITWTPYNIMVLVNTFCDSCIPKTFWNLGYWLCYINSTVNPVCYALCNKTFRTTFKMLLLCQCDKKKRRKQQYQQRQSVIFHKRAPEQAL

[8] = molecular target: Sodium-dependent noradrenaline transporter (Homo sapiens) (UniProt P23975); experiment: NEUP/H Eurofins SafetyScreen44 (BI); details: Compound concentration 10.0 uM
Sequence of Sodium-dependent noradrenaline transporter (Homo sapiens) (P23975 whole entry): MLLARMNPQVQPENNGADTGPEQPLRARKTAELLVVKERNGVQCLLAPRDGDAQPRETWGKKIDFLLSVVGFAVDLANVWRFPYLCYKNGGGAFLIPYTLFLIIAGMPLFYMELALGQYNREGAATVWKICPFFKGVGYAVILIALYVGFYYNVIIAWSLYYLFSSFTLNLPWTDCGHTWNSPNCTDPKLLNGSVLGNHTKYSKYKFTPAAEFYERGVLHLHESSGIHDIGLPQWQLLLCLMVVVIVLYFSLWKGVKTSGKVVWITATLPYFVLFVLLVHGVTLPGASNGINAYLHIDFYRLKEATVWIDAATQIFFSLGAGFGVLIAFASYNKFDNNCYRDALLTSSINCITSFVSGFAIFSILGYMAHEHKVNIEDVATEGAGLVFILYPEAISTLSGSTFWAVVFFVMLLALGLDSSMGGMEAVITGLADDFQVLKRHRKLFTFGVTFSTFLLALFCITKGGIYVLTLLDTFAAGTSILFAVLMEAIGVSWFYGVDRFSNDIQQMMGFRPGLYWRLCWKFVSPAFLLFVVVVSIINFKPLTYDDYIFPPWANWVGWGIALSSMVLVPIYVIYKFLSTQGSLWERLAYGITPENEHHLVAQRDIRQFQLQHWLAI

[9] = molecular target: Sodium-dependent serotonin transporter (Homo sapiens) (UniProt P31645); experiment: SLC6A4/H Eurofins SafetyScreen44 (BI); details: filed as antagonist, Compound concentration 10.0 uM
[10] = molecular target: Beta-2 adrenergic receptor (Homo sapiens) (UniProt P07550); details: Compound concentration 10.0 uM
[11] = molecular target: T1, Alpha-1A adrenergic receptor (Homo sapiens) (UniProt P35348); experiment: ALPHA1A/R Eurofins SafetyScreen44 (BI); details: Rattus norvegicus; Compound concentration 10.0 uM
T1 sequence (whole entry): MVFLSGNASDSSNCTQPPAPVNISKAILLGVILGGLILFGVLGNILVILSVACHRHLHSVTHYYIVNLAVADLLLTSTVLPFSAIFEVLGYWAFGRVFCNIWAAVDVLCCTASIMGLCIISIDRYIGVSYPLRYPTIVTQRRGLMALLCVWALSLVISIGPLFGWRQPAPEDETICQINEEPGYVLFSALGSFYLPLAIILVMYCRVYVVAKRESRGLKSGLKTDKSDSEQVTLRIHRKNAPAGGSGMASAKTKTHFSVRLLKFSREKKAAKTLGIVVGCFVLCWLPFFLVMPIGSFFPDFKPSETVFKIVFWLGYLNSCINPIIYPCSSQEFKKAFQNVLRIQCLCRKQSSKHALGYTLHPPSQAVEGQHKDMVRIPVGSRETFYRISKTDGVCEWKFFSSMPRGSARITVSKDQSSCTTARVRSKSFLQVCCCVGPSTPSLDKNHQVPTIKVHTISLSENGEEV

[12] = molecular target: T2, Alpha-1B adrenergic receptor (Homo sapiens) (UniProt P35368); experiment: ALPHA1B/R Eurofins SafetyScreen44 (BI); details: Rattus norvegicus; Compound concentration 10.0 uM
T2 sequence (whole entry): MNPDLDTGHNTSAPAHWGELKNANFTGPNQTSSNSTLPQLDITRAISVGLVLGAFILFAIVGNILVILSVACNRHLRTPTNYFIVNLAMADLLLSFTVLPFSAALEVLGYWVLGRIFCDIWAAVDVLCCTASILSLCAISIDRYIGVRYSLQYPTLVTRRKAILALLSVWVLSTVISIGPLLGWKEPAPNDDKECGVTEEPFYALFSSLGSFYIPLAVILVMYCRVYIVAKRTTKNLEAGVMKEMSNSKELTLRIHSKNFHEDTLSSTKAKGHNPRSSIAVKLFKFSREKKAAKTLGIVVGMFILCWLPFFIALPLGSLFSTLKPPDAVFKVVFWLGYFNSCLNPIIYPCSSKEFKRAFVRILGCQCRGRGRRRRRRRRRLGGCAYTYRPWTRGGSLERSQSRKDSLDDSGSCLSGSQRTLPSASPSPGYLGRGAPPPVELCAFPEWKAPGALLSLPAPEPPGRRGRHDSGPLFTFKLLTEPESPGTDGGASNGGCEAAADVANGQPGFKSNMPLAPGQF

[13] = molecular target: Beta-2 adrenergic receptor (Homo sapiens) (UniProt P07550); experiment: BETA2/HU Eurofins SafetyScreen44 (BI); details: Compound concentration 10.0 uM
[14] = molecular target: Voltage-dependent L-type calcium channel subunit alpha-1C (Rattus norvegicus, UniProt P22002); experiment: CA+/DHPSI/RA Eurofins SafetyScreen44 (BI); details: compound concentration 10 uM, read-out: % Ctrl
[15] = molecular target: Gamma-aminobutyric acid receptor subunit alpha-1 (Rattus norvegicus) (UniProt P62813); experiment: GABAACENTR Eurofins SafetyScreen44 (BI); details: Compound concentration 10.0 uM
[16] = molecular target: Sodium- and chloride-dependent GABA transporter 1 (Rattus norvegicus) (UniProt P23978); experiment: GABATRANS/RA Eurofins SafetyScreen44 (BI); details: Compound concentration 10.0 uM
[17] = molecular target: Histamine H1 receptor (Homo sapiens) (UniProt P35367); experiment: H1/H Eurofins SafetyScreen44 (BI)
[18] = molecular target: Mu-type opioid receptor (Homo sapiens) (UniProt P35372); experiment: MU/HU Eurofins SafetyScreen44 (BI); details: Compound concentration 10.0 uM
[19] = molecular target: Acetylcholine receptor subunit alpha (Homo sapiens) (UniProt P02708); experiment: NACH/H Eurofins SafetyScreen44 (BI); details: Compound concentration 10.0 uM
Sequence of Acetylcholine receptor subunit alpha (Homo sapiens) (P02708 whole entry): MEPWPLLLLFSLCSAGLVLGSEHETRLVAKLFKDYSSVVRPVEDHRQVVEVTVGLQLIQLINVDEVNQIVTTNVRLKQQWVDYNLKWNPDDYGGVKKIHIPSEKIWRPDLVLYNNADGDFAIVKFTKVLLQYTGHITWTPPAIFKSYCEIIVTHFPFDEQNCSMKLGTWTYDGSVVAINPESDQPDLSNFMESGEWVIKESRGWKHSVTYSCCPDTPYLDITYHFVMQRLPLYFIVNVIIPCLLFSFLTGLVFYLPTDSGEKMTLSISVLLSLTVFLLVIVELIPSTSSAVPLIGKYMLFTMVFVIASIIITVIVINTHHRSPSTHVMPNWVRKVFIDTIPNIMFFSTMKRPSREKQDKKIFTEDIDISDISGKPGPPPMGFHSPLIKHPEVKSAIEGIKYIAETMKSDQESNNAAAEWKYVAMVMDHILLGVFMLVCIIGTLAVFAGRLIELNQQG

[20] = molecular target: Sodium-dependent noradrenaline transporter (Homo sapiens) (UniProt P23975); experiment: NETRANS/H Eurofins SafetyScreen44 (BI); details: Compound concentration 10.0 uM
[21] = molecular target: Glutamate receptor ionotropic, NMDA 2A (Rattus norvegicus) (UniProt Q00959); experiment: NMDAPHSI/R Eurofins SafetyScreen44 (BI); details: Compound concentration 10.0 uM
Sequence of Glutamate receptor ionotropic, NMDA 2A (Rattus norvegicus) (Q00959 23-1464 limits assumed): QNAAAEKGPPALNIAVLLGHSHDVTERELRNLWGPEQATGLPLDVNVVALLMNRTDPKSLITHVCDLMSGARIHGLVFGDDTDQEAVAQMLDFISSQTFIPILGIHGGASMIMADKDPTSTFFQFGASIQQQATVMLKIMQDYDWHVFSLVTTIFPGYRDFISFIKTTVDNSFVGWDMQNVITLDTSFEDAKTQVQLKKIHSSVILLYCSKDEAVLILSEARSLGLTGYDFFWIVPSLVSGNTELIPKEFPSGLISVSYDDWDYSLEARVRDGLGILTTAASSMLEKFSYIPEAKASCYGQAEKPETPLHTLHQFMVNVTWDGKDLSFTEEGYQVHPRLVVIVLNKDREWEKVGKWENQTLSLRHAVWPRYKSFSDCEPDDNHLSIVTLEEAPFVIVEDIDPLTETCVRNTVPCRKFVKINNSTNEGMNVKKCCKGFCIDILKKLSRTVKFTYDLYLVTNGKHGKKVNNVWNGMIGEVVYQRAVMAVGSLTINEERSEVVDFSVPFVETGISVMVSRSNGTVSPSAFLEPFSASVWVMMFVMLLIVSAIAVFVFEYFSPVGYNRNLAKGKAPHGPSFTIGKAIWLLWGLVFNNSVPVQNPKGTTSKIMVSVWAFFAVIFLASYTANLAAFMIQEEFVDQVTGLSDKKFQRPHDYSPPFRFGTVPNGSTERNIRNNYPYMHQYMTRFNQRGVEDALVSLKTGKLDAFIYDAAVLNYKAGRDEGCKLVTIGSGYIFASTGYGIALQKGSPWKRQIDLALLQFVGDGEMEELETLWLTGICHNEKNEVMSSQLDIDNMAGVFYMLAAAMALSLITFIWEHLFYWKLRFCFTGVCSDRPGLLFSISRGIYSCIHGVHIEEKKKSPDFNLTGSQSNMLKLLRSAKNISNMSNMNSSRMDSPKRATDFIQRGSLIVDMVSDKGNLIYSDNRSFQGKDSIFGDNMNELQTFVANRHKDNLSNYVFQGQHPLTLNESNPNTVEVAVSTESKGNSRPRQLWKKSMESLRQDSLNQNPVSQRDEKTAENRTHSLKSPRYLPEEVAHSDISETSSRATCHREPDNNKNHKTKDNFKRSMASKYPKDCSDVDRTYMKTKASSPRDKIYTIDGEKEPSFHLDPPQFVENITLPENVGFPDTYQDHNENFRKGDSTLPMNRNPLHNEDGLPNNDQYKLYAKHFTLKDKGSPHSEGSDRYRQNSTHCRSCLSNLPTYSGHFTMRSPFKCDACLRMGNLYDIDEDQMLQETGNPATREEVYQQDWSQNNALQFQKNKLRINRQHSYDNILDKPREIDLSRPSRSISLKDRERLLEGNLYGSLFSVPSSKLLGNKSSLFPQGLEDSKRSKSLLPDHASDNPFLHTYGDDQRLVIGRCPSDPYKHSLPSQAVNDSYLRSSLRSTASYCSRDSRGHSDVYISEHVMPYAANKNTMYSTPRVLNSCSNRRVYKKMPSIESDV

[22] = molecular target: T3, Thyroid hormone receptor alpha (Rattus norvegicus) (UniProt P63059); experiment: THYROID HORM Eurofins SafetyScreen44 (BI)
T3 sequence (whole entry): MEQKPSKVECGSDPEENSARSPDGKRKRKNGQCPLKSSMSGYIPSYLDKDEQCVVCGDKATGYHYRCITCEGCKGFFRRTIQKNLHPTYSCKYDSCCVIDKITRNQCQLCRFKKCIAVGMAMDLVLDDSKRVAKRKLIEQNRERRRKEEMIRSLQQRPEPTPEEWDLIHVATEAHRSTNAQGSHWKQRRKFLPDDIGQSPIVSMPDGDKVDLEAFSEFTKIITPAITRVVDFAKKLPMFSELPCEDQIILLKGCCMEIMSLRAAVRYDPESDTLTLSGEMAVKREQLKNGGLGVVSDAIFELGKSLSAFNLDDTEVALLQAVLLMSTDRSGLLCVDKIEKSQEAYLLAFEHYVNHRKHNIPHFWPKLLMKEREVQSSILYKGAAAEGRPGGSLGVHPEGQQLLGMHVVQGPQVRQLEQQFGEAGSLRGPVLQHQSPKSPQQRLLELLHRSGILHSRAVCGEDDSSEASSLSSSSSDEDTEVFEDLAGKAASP

[23] = molecular target: T1, Alpha-1A adrenergic receptor (Homo sapiens); details: Compound concentration 10.0 uM

Sequence of Beta-2 adrenergic receptor (Homo sapiens) (P07550 whole entry, looked up): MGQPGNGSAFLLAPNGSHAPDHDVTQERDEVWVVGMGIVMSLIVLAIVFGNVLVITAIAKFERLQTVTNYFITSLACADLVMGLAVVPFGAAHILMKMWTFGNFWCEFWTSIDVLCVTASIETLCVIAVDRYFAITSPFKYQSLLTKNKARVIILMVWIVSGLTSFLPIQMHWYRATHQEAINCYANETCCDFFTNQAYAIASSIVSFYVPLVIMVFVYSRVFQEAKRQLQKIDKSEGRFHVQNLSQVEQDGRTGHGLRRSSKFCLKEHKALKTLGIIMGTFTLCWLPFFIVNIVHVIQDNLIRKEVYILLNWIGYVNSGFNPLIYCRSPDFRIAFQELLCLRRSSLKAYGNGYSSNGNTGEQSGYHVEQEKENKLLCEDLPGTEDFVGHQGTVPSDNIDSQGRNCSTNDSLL

With `COCCCS(=O)(=O)c1cc(C)c(-c2ccc(F)c3c2CC[C@H]3Oc2ccc3c(c2)OC[C@H]3CC(=O)O)c(C)c1` the residual activity [1] was 99%, the activity at 10 µM [2] was 90% (not active) and the residual activity [3] was 89%. The residual activity [4] was 87%, the residual activity [5] was 108% and the residual activity [6] was 77%. For the same compound, the residual activity [7] was 95%, the residual activity [8] was 83% and the residual activity [9] was 109%. The inhibition [10] was 2.56%.

Compound `Cc1cc(OCCC(C)(C)O)cc(C)c1-c1ccc(F)c2c1CC[C@H]2Oc1ccc2c(c1)OC[C@H]2CC(=O)O` has a residual activity [11] of 73%, a residual activity [12] of 114% and a residual activity [13] of 109%. The activity at 10 µM [14] was 90% (not active), the residual activity [15] was 83% and the residual activity [16] was 88%. For the same compound, the residual activity ([17]; Compound concentration 0.3 uM) was 90%, the residual activity ([17]; Compound concentration 1.0 uM) was 87% and the residual activity ([17]; Compound concentration 3.0 uM) was 68%. For the same compound, the residual activity ([17]; Compound concentration 10.0 uM) was 39%, the residual activity ([17]; Compound concentration 30.0 uM) was 17% and the residual activity [18] was 76%. The residual activity [19] was 115%, the residual activity [20] was 68% and the residual activity [21] was 103%. The residual activity ([22]; Compound concentration 0.3 uM) was 97%, the residual activity ([22]; Compound concentration 1.0 uM) was 95% and the residual activity ([22]; Compound concentration 3.0 uM) was 77%. The residual activity ([22]; Compound concentration 10.0 uM) was 39.5%, the residual activity ([22]; Compound concentration 30.0 uM) was 2% and the inhibition [23] was -8.92%.
